Measured values: ChEMBL document CHEMBL5512656, “Tetrazole derivatives in the management of neurological disorders: Recent advances on synthesis and pharmacological aspects” (Eur J Med Chem, 2024)

Tests used:
Mus musculus [1] = assay: Antidepressant activity in Kunming mouse assessed as reduction in duration of immobility time at 30 mg/kg, ip by forced swim test; format: functional
[2] = Cytotoxicity against mouse NIH/3T3 cells incubated for 24 hrs by MTT assay
Acetylcholinesterase [3] = molecular target: T1, Acetylcholinesterase (Electrophorus electricus, UniProt O42275); assay: Inhibition of electric eel AChE using acetylthiocholine iodide as substrate incubated for 30 mins by Ellman's method
Mus musculus [4] = assay: Antidepressant activity in Kunming mouse assessed as reduction in duration of immobility time at 40 mg/kg, ip by forced swim test; format: functional
Mus musculus [5] = assay: Anticonvulsant activity in ip dosed MES induced mouse seizure model measured after 0.5 and 4 hrs; format: functional
Mus musculus [6] = assay: Anticonvulsant activity in ip dosed scPTZ induced Kunming mouse seizure model measured for 30 mins; format: functional; settings: 0.5 h
Rattus norvegicus [7] = assay: Anticonvulsant activity in po dosed scPTZ induced Albino rat seizure model measured after 4 hrs; format: functional
Rattus norvegicus [8] = assay: Anticonvulsant activity in po dosed MES induced Albino rat seizure model measured after 4 hrs; format: functional
[9] = Neurotoxicity in ip dosed mouse by rotarod test; format: toxicity, organism-based; settings: in vivo
Mus musculus [10] = assay: Anticonvulsant activity in ip dosed scPTZ induced Kunming mouse seizure model; format: functional
Mus musculus [11] = assay: Anticonvulsant activity in ip dosed MES induced Kunming mouse seizure model; format: functional
Mus musculus [12] = assay: Anticonvulsant activity in ip dosed MES induced Kunming mouse seizure model measured after 0.5, 1, 2, and 4 hrs intervals; format: functional
[13] = Neurotoxicity in ip dosed Kunming mouse by rotarod test; format: toxicity, organism-based; settings: in vivo
[14] = Protection index, ratio of TD50 for neurotoxicity in ip dosed Kunming mouse to ED50 for anticonvulsant activity in ip dosed Kunming mouse; format: toxicity, organism-based; settings: in vivo, read-out: PI
Mus musculus [15] = assay: Antidepressant activity in Kunming mouse assessed as reduction in duration of immobility time at 50 mg/kg, ip by forced swim test; format: functional
[16] = molecular target: Cholinesterase (Equus caballus) (UniProt P81908); assay: Inhibition of equine serum BChE using butyrylthiocholine iodide as substrate preincubated for 15 mins followed by substrate addition and measured after 30 mins by Ellman's method relative to control; settings: time 45.0 min
Cholinesterase = Cholinesterase (Equus caballus, UniProt P81908); assay: Inhibition of equine serum BChE using butyrylthiocholine chloride as substrate preincubated for 10 mins followed by substrate addition and measured after 15 mins by Ellman's method
Acetylcholinesterase [17] = molecular target: T1, Acetylcholinesterase; assay: Inhibition of electric eel AChE using acetylthiocholine iodide as substrate preincubated for 10 mins followed by substrate addition and measured after 15 mins by Ellman's method
Acetylcholinesterase [18] = molecular target: T1, Acetylcholinesterase; assay: Inhibition of electric eel AChE using acetylthiocholine iodide as substrate preincubated for 15 mins followed by substrate addition and measured after 30 mins by Ellman's method
Mus musculus [19] = assay: Anticonvulsant activity in po dosed MES induced Kunming mouse seizure model; format: functional
[20] = Neurotoxicity in ip dosed Kunming mouse after 15 mins by rotarod test; format: toxicity, organism-based; settings: in vivo
[21] = molecular target: Acetylcholinesterase (Electrophorus electricus) (UniProt O42275); assay: Inhibition of electric eel AChE using acetylthiocholine iodide as substrate preincubated for 15 mins followed by substrate addition and measured after 30 mins by Ellman's method relative to control; settings: time 45.0 min
[22] = Inhibition of DA uptake in HEK293 cells transfected with human DAT at 1 uM by liquid scintillation counting analysis; format: functional
[23] = Inhibition of DA uptake in HEK293 cells transfected with human DAT by liquid scintillation counting analysis; format: functional, cell-based
[24] = Inhibition of NE uptake in HEK293 cells transfected with human NET at 1 uM by liquid scintillation counting analysis; format: functional
[25] = Inhibition of 5-HT uptake in HEK293 cells transfected with human SERT by liquid scintillation counting analysis; format: functional, cell-based
[26] = Inhibition of NE uptake in HEK293 cells transfected with human NET by liquid scintillation counting analysis; format: functional, cell-based
[27] = Inhibition of 5-HT uptake in HEK293 cells transfected with human SERT at 1 uM by liquid scintillation counting analysis; format: functional
Mus musculus [28] = assay: Anticonvulsant activity in ip dosed scPTZ induced Kunming mouse seizure model measured after 30 mins; format: functional; settings: 0.5 h

Chain of Cholinesterase (P81908 whole entry): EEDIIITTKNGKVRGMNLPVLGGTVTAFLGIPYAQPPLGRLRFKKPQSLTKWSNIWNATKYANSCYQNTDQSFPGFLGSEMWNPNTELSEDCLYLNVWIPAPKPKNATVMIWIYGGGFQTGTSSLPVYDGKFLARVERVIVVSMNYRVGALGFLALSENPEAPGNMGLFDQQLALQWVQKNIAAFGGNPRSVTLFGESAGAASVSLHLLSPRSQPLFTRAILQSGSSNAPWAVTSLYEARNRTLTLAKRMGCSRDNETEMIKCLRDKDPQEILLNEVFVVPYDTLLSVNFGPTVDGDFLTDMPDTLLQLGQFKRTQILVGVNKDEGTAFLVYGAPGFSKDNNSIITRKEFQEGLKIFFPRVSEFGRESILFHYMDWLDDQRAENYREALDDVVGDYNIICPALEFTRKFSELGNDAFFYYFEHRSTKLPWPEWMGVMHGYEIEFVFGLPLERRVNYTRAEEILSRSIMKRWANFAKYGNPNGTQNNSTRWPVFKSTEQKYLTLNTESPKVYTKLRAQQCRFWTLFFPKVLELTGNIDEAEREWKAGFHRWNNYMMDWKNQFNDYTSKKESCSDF
T1 sequence (O42275 whole entry): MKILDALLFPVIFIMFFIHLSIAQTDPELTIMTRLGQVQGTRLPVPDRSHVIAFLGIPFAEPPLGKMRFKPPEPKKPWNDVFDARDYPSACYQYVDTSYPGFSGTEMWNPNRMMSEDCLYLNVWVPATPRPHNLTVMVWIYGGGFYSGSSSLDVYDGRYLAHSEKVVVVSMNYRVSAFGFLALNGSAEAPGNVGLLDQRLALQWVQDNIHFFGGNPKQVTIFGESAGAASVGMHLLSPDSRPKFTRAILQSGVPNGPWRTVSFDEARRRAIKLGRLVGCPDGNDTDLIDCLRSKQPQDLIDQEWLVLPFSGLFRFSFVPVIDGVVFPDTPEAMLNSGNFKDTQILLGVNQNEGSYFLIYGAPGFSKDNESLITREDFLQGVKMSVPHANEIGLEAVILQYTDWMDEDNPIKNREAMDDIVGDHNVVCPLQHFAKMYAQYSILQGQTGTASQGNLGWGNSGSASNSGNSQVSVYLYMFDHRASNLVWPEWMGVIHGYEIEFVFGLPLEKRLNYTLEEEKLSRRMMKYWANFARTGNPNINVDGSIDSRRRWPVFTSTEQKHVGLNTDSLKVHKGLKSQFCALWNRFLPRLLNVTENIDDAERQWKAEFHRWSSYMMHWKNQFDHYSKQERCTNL
Chain of Acetylcholinesterase (Electrophorus electricus) (O42275 24-633 limits assumed): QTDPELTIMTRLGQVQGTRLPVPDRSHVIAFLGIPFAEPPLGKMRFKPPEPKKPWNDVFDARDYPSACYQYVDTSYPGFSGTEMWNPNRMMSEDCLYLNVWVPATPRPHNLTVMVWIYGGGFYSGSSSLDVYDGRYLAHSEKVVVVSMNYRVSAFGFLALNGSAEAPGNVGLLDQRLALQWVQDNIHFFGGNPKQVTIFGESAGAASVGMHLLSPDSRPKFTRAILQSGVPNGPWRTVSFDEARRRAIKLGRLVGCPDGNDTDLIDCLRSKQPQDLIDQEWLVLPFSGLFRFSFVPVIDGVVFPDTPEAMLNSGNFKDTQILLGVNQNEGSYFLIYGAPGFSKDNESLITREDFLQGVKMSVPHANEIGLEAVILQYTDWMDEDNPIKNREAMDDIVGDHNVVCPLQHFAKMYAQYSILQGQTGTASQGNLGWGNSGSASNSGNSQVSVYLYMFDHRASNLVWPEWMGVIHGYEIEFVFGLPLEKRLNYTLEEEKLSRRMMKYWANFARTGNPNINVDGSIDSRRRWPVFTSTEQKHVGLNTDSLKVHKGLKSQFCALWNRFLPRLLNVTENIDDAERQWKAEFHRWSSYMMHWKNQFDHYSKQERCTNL
Chain of Cholinesterase (Equus caballus) (P81908 whole entry): as the sequence (P81908 whole entry) above

CCCCCCOc1nc2nnnn2c2ccccc12
Time (Mus musculus [1]): 62.2 s

COc1cc2c(cc1OC)C(=O)C(CC1CCN(Cc3ccccc3)CC1)C2 (configuration not stated) [DONEPEZIL]
IC50 at 24 h ([2]; nih3t3): 1260 nM

Cc1ccccc1-n1nnnc1S[C@H]1Cc2ccccc2C1=O
IC50 (Acetylcholinesterase [3]): 7560 nM

FC(F)(F)c1ccccc1C1Cc2nnnn2-c2ccsc21 (configuration not stated)
Time (Mus musculus [4]): 68.43 s
ED50 (Mus musculus [5]): 19 mg/kg
ED50 (Mus musculus [6]): 26.2 mg/kg

Cc1ccccc1-n1c(C)nc2c(OCc3nnn(Cc4ccc(-c5ccncc5)cc4)n3)cccc2c1=O
ED50 (Rattus norvegicus [7]): > 100 mg/kg
ED50 (Rattus norvegicus [8]): 12.9 mg/kg

Clc1ccc(C2Cc3nnnn3-c3ccsc32)cc1 (configuration not stated)
ED50 (Mus musculus [5]): 9.5 mg/kg
ED50 (Mus musculus [6]): 20.5 mg/kg

Cc1ccccc1Cn1nnnc1-c1ccccc1C
TD50 [9]: 500 mg/kg
ED50 (Mus musculus [5]): 12.7 mg/kg

FC(F)(F)c1ccc(C2Cc3nnnn3-c3ccsc32)cc1 (configuration not stated)
Time (Mus musculus [4]): 51.43 s
ED50 (Mus musculus [5]): 23.4 mg/kg
ED50 (Mus musculus [6]): 64.7 mg/kg

COc1ccc2c3c1O[C@H]1C[C@@H](O)C=C[C@@]31CCN(C)C2 [GALANTAMINE]
IC50 at 24 h ([2]; NIH/3T3 cells): 7280 nM

O=C1c2ccccc2C[C@@H]1Sc1nnnn1-c1cccc([N+](=O)[O-])c1
IC50 (Acetylcholinesterase [3]): 2860 nM

NC(=O)O[C@@H](Cn1ncnn1)c1ccccc1Cl [CENOBAMATE]
ED50 (Mus musculus [10]): 28.5 mg/kg
ED50 (Mus musculus [11]): 9.8 mg/kg

Cc1ccccc1-c1nn[nH]n1
ED50 (Mus musculus [12]): 9.6 mg/kg
TD50 [13]: 190 mg/kg
selectivity ratio [14]: 19.7

Cc1cccc(-n2c(=O)c3ccccc3n3nnnc23)c1
Time (Mus musculus [15]): 16.5 s

Oc1cccc(/C=N/NCCCCc2nnnn2-c2ccccc2)c1
inhibition [16]: 51.3%

O=C1c2ccccc2C[C@@H]1Sc1nnnn1-c1cccc(F)c1
IC50 (Acetylcholinesterase [3]): 2630 nM

COc1ccc(Oc2nc3nnnn3c3ccccc23)cc1
Time (Mus musculus [1]): 85.2 s

Cc1ccc(-n2c(=O)c3ccccc3n3nnnc23)cc1
Time (Mus musculus [15]): 11.83 s

O=c1c2ccccc2n2nnnc2n1-c1ccccc1F
Time (Mus musculus [15]): 14.67 s

CC1(c2ccc(F)cc2)CC(c2ccc(F)cc2)=C(C#N)/C(=C(/C#N)c2nnn[nH]2)N1 (configuration not stated)
IC50 (Cholinesterase): 38800 nM
IC50 (Acetylcholinesterase [17]): 2010 nM

O=C1c2ccccc2C[C@@H]1Sc1nnnn1-c1ccccc1F
IC50 (Acetylcholinesterase [3]): 4040 nM

COc1ccc(C2Cc3nnnn3-c3ccsc32)cc1 (configuration not stated)
ED50 (Mus musculus [5]): 44 mg/kg
ED50 (Mus musculus [6]): 65.5 mg/kg

CCCCCOc1nc2nnnn2c2ccccc12
Time (Mus musculus [1]): 112.3 s

CCC1(C)CC(=O)NC1=O (configuration not stated) [ETHOSUXIMIDE]
ED50 (Rattus norvegicus [7]): 167 mg/kg
ED50 (Rattus norvegicus [8]): > 500 mg/kg
ED50 (Mus musculus [6]): 106 mg/kg

O=C(CCCSc1nnnn1-c1ccccc1)N/N=C/c1cccc(O)c1
IC50 at 24 h ([2]; NIH/3T3 cells): 105000 nM
IC50 (Acetylcholinesterase [18]): 76500 nM

O=C1c2ccccc2C[C@@H]1Sc1nnnn1-c1ccc(F)cc1
IC50 (Acetylcholinesterase [3]): 3040 nM

O=C1NC(=O)C(c2ccccc2)(c2ccccc2)N1 [PHENYTOIN]
ED50 (Rattus norvegicus [7]): > 500 mg/kg
ED50 (Rattus norvegicus [8]): 28.1 mg/kg

O=C1c2ccccc2C[C@@H]1Sc1nnnn1-c1ccc([N+](=O)[O-])cc1
IC50 (Acetylcholinesterase [3]): 6670 nM

CN(C)C(=O)Oc1cccc([N+](C)(C)C)c1 [NEOSTIGMINE]
IC50 (Cholinesterase): 8410 nM
IC50 (Acetylcholinesterase [17]): 19 nM

CNCCC(Oc1ccc(C(F)(F)F)cc1)c1ccccc1 (configuration not stated) [FLUOXETINE]
Time (Mus musculus [1]): 61.3 s
Time (Mus musculus [4]): 54.21 s
Time (Mus musculus [15]): 17.83 s

COc1ccccc1C1=C(C#N)/C(=C(/C#N)c2nnn[nH]2)NC(C)(c2ccccc2OC)C1 (configuration not stated)
IC50 (Cholinesterase): 290 nM
IC50 (Acetylcholinesterase [17]): 19300 nM

Cc1ccccc1-c1nnnn1Cc1cccc(F)c1
TD50 [9]: 450 mg/kg
ED50 (Mus musculus [5]): 39.9 mg/kg

Cc1ccccc1-n1c(C)nc2c(OCc3nnn(S(=O)(=O)c4ccc(N)cc4)n3)cccc2c1=O
ED50 (Rattus norvegicus [7]): 72.3 mg/kg
ED50 (Rattus norvegicus [8]): 4.93 mg/kg

FC(F)(F)c1cccc(C2Cc3nnnn3-c3ccsc32)c1 (configuration not stated)
Time (Mus musculus [4]): 73.63 s

NC(=O)N1c2ccccc2C=Cc2ccccc21 [CARBAMAZEPINE]
ED50 (Mus musculus [19]): 27.3 mg/kg
ED50 (Mus musculus [5]): 11.8 mg/kg

O=C(CCCSc1nnnn1-c1ccccc1)N/N=C/c1cccc([N+](=O)[O-])c1
IC50 (Acetylcholinesterase [18]): 42500 nM

Clc1ccc(Oc2nn3nnnc3c3ccccc23)cc1
TD50 at 0.25 h [20]: 456 mg/kg
ED50 (Mus musculus [19]): 24 mg/kg
ED50 (Mus musculus [11]): 6.8 mg/kg
selectivity ratio [14]: 67.1

O=C(CCCSc1nnnn1-c1ccccc1)N/N=C/c1ccccc1[N+](=O)[O-]
IC50 (Acetylcholinesterase [18]): 54700 nM

O=[N+]([O-])c1cccc(/C=N/NCCCCc2nnnn2-c2ccccc2)c1
IC50 at 24 h ([2]; NIH/3T3 cells): 51.7 µg/mL
inhibition [21]: 98.5%

Fc1ccc(C(c2ccc(F)cc2)c2nnnn2CCCCN2CCC(Cc3ccccc3)CC2)cc1
inhibition at 1 µM [22]: 92.3%
IC50 [23]: 58 nM
inhibition at 1 µM [24]: 81%
IC50 [25]: 453 nM
IC50 [26]: 298 nM
inhibition at 1 µM [27]: 77.6%

O=[N+]([O-])c1ccccc1/C=N/NCCCCc1nnnn1-c1ccccc1
IC50 at 24 h ([2]; NIH/3T3 cells): 55 µg/mL
inhibition [21]: 92%

Clc1ccccc1-c1nnn[nH]1
ED50 (Mus musculus [28]): 83.3 mg/kg

Clc1ccc(C(c2ccccc2)c2nnnn2CCCCN2CCC(Cc3ccccc3)CC2)cc1 (configuration not stated)
inhibition at 1 µM [22]: 67.8%
IC50 [23]: 550 nM
inhibition at 1 µM [24]: 58.9%
IC50 [25]: 90 nM
IC50 [26]: 780 nM
inhibition at 1 µM [27]: 88.9%

Cc1ccccc1-n1c(C)nc2c(OCc3nnn(C(=O)c4ccc(N)cc4)n3)cccc2c1=O
ED50 (Rattus norvegicus [7]): 48.4 mg/kg
ED50 (Rattus norvegicus [8]): 10.9 mg/kg
